Counter-ions that a name gives are not always drawn.

In this test the target is Histamine H3 receptor. In words: In Vitro Histamine H3 Receptor Binding Analysis ([3H]-N-alpha-methylhistamine displacement, rat cortical membranes). To be noted: [3H]-N-alpha-methylhistamine 0.8-1.2 nM, pH 7.4, 40 min, 25° C, read-out: Histamine H3 Receptor Binding Affinities, H3 Receptor Ki. As to the method:
Histamine H3 receptor affinity was determined in rat cortical membranes using the H3 selective agonist ligand, [^3 H]-N^α -methylhistamine (78.9 Ci/mole, DuPont NEN Research Products, Boston, Mass.) according to the method of West et al., (1990) Mol. Pharmacol. 38: 610-613 with modifications. Briefly, animals were sacrificed by decapitation and the cerebral cortex was rapidly removed. Rat cortices were mechanically homogenized with an Omni 1000 motor driven homogenizer in 10 volumes (wt/vol) of Krebs-Ringers Hepes buffer (pH 7.4) containing the following protease inhibitors: EDTA (10 mM), PMSF (0.1 mM), chymostatin (0.2 mg/50 mL) and leupeptin (0.2 mg/50 mL). The homogenate was centrifuged in a Sorvall at ~40,000×g for 30 min. The pellet was resuspended by mechanical homogenization in 25 mL water and lysed on ice for 30 min. The homogenate was recentrifuged and the membrane lysis was repeated. The membranes were recentrifuged and the final pellet was resuspended in 14 volumes of water to give approximately 200 μg protein/100 μl final concentration. The suspension was stored at -80° prior to use. Protein concentrations were determined by Coomassie Plus Protein Assay (Pierce, Rockford, Ill.).
Nonspecific binding (NSB) was accounted for by the inclusion of thioperamide (10 μM). Samples were incubated for 40 minutes at 25° C. The samples were filtered through glass fiber strips, pre-washed with 0.3% polyethyleneimine, using a Brandell cell harvester. The filters were rapidly washed three times with 4 ml of 25 mm Tris buffer containing 145 mM NaCl (pH 7.4, 4° C.). Filters were transferred to polyethylene mini-vials and counted in 3.5 ml of scintillation fluid (Ecolume, ICN Biomedicals, Inc.). […] Saturation and competition experiments were analyzed with the ReceptorFit saturation and competition curve fitting programs (Lundon Software, Ind., Cleveland, Ohio).
On to `C[C@@H](NC(=O)C1CC1c1c[nH]cn1)C1CCCCC1` (mixture of isomers) [Example 6, N-[(R)-1-Cyclohexylethyl]-3-(1H-imidazol-4-yl)-trans-(2R,3R)-cyclopropanamide and N-[(R)-1-Cyclohexylethyl]-3-(1H-imidazol-4-yl)-trans-(2S,3S)-cyclopropanamide hydrochloride], for which the Ki stood at 70 ± 8.6 nM.

With `C[C@H](NC(=O)C1CC1c1c[nH]cn1)C1CCCCC1` (mixture of isomers) [Example 7, N-[(S)-1-Cyclohexylethyl]-3-(1H-imidazol-4-yl)-trans-(2R,3R)-cyclopropanamide and N-[(S)-1-Cyclohexylethyl]-3-(1H-imidazol-4-yl)-trans-(2S,3S)-cyclopropanamide hydrochloride], the inhibitory constant (Ki) was found to be 146 ± 13 nM.

On to `O=C(CCCC1CCCCC1)[C@@H]1C[C@H]1c1c[nH]cn1` (racemic) [Example 10, (±)-trans-4-cyclohexyl-1-(2-imidazol-4-ylcyclopropyl)butan-1-one], for which the Ki stood at 97 ± 21 nM.

`CN(CC1CCCCC1)C(=O)[C@@H]1C[C@H]1c1c[nH]cn1` (racemic) [Example 11, (±)-trans-N-(cyclohexylmethyl)(2-imidazol-4-ylcyclopropyl)-N-methylformamide]: the inhibition constant Ki came out at 134 ± 13 nM.

Consider `c1nc([C@@H]2C[C@H]2COCCCC2CCCCC2)c[nH]1` (racemic) [Example 18, (±)-trans-(3-cyclohexylpropoxy)(2-imidazol-4-ylcyclopropyl)methane], for which the inhibition constant Ki was found to be 240 ± 6 nM.

Consider `OC(CCCC1CCCCC1)[C@@H]1C[C@H]1c1c[nH]cn1` (mixture of isomers) [Example 19, (±)-trans-4-cyclohexyl-1-(2-imidazol-4-ylcyclopropyl)butan-1-ol], for which the inhibitory constant (Ki) was 160 ± 9 nM.

For `O=C(NCc1ccccc1)[C@@H]1C[C@H]1c1c[nH]cn1` (relative stereo) [Example 1, N-(1-Benzyl)-3-[(1H-imidazol-4-yl)]-(2R,3R)-trans-cyclopropanamide and N-(1-Benzyl)-3-[(1H-imidazol-4-yl)]-(2S,3S)-trans-cyclopropanamide hydrochloride], the inhibitory constant (Ki) was 53 ± 2 nM.

`O=C(NCC1CCCCC1)[C@@H]1C[C@H]1c1c[nH]cn1` (relative stereo) [Example 2, (±)-trans-N-(cyclohexylmethyl)(2-imidazol-4-ylcyclopropyl)formamide]: the Ki came to 37 ± 4 nM.

Regarding `CC1CCCCN1CCCNC(=O)[C@@H]1C[C@H]1c1c[nH]cn1` (relative stereo) [Example 3, (±)-trans-(2-imidazol-4-ylcyclopropyl)-N-(3-((±)-2-methylpiperidyl)formamide], the Ki is 659 ± 52 nM.

Turning to `O=C(NCCCN1CCOCC1)[C@@H]1C[C@H]1c1c[nH]cn1` (relative stereo) [Example 4, (±)-trans-(2-imidazol-4-ylcyclopropyl)-N-(3-morpholin-4-ylpropyl)formamide], the Ki came out at 1400 ± 158 nM.

Consider `O=C(Nc1ccccc1)[C@@H]1C[C@H]1c1c[nH]cn1` (relative stereo) [Example 5, N-(phenyl)-3-(1H-imidazol-4-yl)-trans-(2R,3R)-cyclopropanamide and N-(phenyl)-3-(1H-imidazol-4-yl)-trans-(2S,3S)-cyclopropanamide hydrochloride], for which the inhibitory constant (Ki) was 267 ± 26 nM.

Regarding `O=C(NCC12CC3CC(CC(C3)C1)C2)[C@@H]1C[C@H]1c1c[nH]cn1` (relative stereo) [Example 8, N-[1-Adamantylmethyl]-3-(1H-imidazol-4-yl)-trans-(2R,3R)-cyclopropanamide hydrochloride and N-[1-Adamantylmethyl]-3-(1H-imidazol-4-yl)-trans-(2S,3S)-cyclopropanamide hydrochloride], the Ki came out at 55 ± 6 nM.

With `O=C(NCCc1ccccc1)[C@@H]1C[C@H]1c1c[nH]cn1` (relative stereo) [Example 9, (±)-trans-(2-imidazol-4-ylcyclopropyl)-N-(2-phenylethyl)formamide], the Ki came out at 163 ± 19 nM.

With `C(=C/[C@@H]1C[C@H]1c1c[nH]cn1)/CCC1CCCCC1` (relative stereo) [Example 16, (±)-trans-4-(2-(4-cyclohexylbut-cis-1-enyl)cyclopropyl)imidazole], the Ki came to 12.2 ± 1 nM.

Regarding `C(=C\[C@@H]1C[C@H]1c1c[nH]cn1)/CCC1CCCCC1` (relative stereo) [Example 17, (±)-trans-4-(2-(4-cyclohexylbut-trans-1-enyl)cyclopropyl)imidazole], the Ki came to 11 ± 1 nM.

On to `O=C(N[C@@H]1C[C@H]1c1c[nH]cn1)OCc1ccccc1` (relative stereo) [Example 26, (±)-trans-N-(2-imidazol-4ylcyclopropyl)(phenylmethoxy)formamide], for which the Ki came out at 5.8 ± 0.4 nM.

In the case of `O=C(NCCCC1CCCCC1)[C@@H]1C[C@H]1c1c[nH]cn1` (relative stereo) [Example 29, N-[3-cyclohexylpropyl]-3(R)-[1H-imidazoyl-4-yl]-2(R)-cyclopropanamide and N-[3-Cyclohexylpropyl]-3(S)-[1H-imidazoyl-4-yl]-2(R)-cyclopropanamide], the inhibition constant (Ki) was determined as 36 ± 8 nM.

In the case of `O=C(NCCC1=CCCCC1)[C@@H]1C[C@H]1c1c[nH]cn1` (relative stereo) [Example 31, N-[2-Cyclohex-1-enyl-ethyl]-3(R)-[1H-imidazol-4-yl]-2(R)-cyclopropanamide HCl salt and N-[2-Cyclohex-1-enyl-ethyl]-3(S)-[1H-imidazol-4-yl]-2(S)-cyclopropanamide HCl salt], the Ki came to 294 ± 26 nM.

Take `O=C(NCC1CC1)[C@@H]1C[C@H]1c1c[nH]cn1` (relative stereo) [Example 32, (±)-trans-N-(cyclopropylmethyl)(2-imidazol-4-ylcyclopropyl)formamide]: the Ki came out at 876 ± 158 nM.

Take `O=C(NCCCc1ccccc1)[C@@H]1C[C@H]1c1c[nH]cn1` (relative stereo) [Example 33, (±)-trans-(2-imidazol-4-ylcyclopropyl)-N-(3-phenylpropyl)formamide]: the inhibitory constant (Ki) stood at 197 ± 23 nM.

Turning to `O=C(NCCc1c[nH]cn1)[C@@H]1C[C@H]1c1c[nH]cn1` (relative stereo) [Example 34, (±)-trans-(2-imidazol-4-ylcyclopropyl)-N-(2-imidazol-4-ylethyl)formamide], the Ki came to 227 ± 26 nM.

Turning to `O=C(NCCc1c[nH]c2ccccc12)[C@@H]1C[C@H]1c1c[nH]cn1` (relative stereo) [Example 35, (±)-trans-(2-imidazol-4-ylcyclopropyl)-N-(2-indol-3-ylethyl)formamide], the Ki came to 44 ± 73 nM.

In the case of `O=C(NCC(O)CC1CCCCC1)[C@@H]1C[C@H]1c1c[nH]cn1` (relative stereo) [Example 36, (±)-trans-N-(3-cyclohexyl-2-(±)-hydroxypropyl)(2-imidazol-4-ylcyclopropyl)formamide], the Ki amounted to 145 nM.

Consider `O=C(NCCCCC1CCCCC1)[C@@H]1C[C@H]1c1c[nH]cn1` (relative stereo) [Example 37, (±)-trans-N-(4-cyclohexylbutyl)(2-imidazol-4-ylcyclopropyl)formamide], for which the inhibition constant Ki worked out at 68 nM.

In the case of `O=C(NCC1CCCCC1)[C@H]1C[C@@H]1c1c[nH]cn1` [Example 2a], the Ki is 23 ± 1 nM.

In the case of `O=C(NCC1CCCCC1)[C@@H]1C[C@H]1c1c[nH]cn1` [Example 2b], the inhibition constant (Ki) turned out to be 176 ± 9 nM.

As for `NC(CC1CCCCC1)C(=O)NC1CC1c1c[nH]cn1` [Example 12, (1R,2R)-trans-2(S)-amino-3-cyclohexyl-N-(2-imidazol-4-ylcyclopropyl)propanamide], the Ki amounted to 1.85 ± 0.5 nM.

Consider `NC(CC1CCCCC1)C(=O)NC1CC1c1c[nH]cn1` [Example 13, (1S,2S)-trans-2(S)-amino-3-cyclohexyl-N-(2-imidazol-4-ylcyclopropyl)propanamide], for which the Ki was 21.5 ± 1.8 nM.

As to `O=C(N[C@H]1C[C@@H]1c1c[nH]cn1)[C@@H]1CC2CCCCC2N1` (stereo partly drawn) [Example 14, (2R,3R)-trans-(7-azabicyclo[43.0]non-(S)-8-yl)-N-(2-imidazol-4-ylcyclopropyl)formamide], the inhibition constant Ki worked out at 8.5 ± 0.7 nM.

Take `O=C(N[C@@H]1C[C@H]1c1c[nH]cn1)[C@@H]1CC2CCCCC2N1` (stereo partly shown) [Example 15]: the Ki amounted to 37 ± 4 nM.

Consider `NC(C=CC1CC1c1c[nH]cn1)CC1CCCCC1` [Example 20, (1R,2R)-trans-1-cyclohexyl-4-(2-imidazol-4-ylcyclopropyl)but-trans-3-en-2(S)-ylamine], for which the Ki was found to be 0.37 ± 0.2 nM.

For `NC(C=CC1CC1c1c[nH]cn1)CC1CCCCC1` [Example 21, 1(R)-[1H-imidazol-4-yl]-2(R)-cyclopropyl-5-(S)-amino-6-cyclohexyl-3-cis-hexene], the Ki is 97.7 ± 28 nM.

Consider `C(=CC1CC1c1c[nH]cn1)CCC1CCCCC1` [Example 22, (1R,2R)-trans--4-(2-(4-cyclohexylbut-trans-1-enyl)cyclopropyl)imidazole], for which the Ki is 2.4 ± 0.2 nM.

Consider `C(=CC1CC1c1c[nH]cn1)CCC1CCCCC1` [Example 23, (1R,2R)-trans-4-(2-(4-cyclohexylbut-cis-1-enyl)cyclopropyl)imidazole], for which the Ki stood at 6.2 ± 0.8 nM.

Usually Ki stands for the equilibrium dissociation constant of an inhibitor or competing ligand from its target.

The values above are taken from patent publication US5990317A, “2-(1H-4(5)-imidazoyl) cyclopropyl compounds” (Gliatech, Inc., priority 1998, dated 1999).
